# Results published in US20110112184A1, “COMPOUNDS WITH GLYCIDIC STRUCTURE ACTIVE IN THE THERAPY OF SYSTEMIC AND LOCAL INFLAMMATION” (priority 2008, published 2011).
# How the values were obtained:
# Assay type in all cases: in vivo
# mice treated with LPS = experiment: Serum KC levels after oral LPS in mice (diarrhoea model); conditions: compound 4 25 μg/kg oral, then LPS 50 mg/kg oral, serum after 4 h, ELISA
# Protocol: FIG. 3. Serum levels of cytokine KC from mice treated with LPS alone or LPS with comp 4. Untr=untreated; LPS=Mice treated with LPS alone; comp 4+LPS=Mice treated with comp 4+LPS; comp 4=Mice treated with comp 4 alone.
# We tested whether oral pretreatment of mice with the compound 4 interferes with the increase in KC serum levels induced by LPS administration to mice. The dosage of compound 4 chosen for all in vivo experiments was 25 μg/kg. Mice (10/group) were treated orally with compound 4 (25 μg/kg), followed by oral treatment with LPS (50 mg/kg). Serum samples were collected after 4 h, and KC levels were evaluated by ELISA.
# [1] = system: ovalbumin-treated C57B1/6 mice; experiment: Ovalbumin mouse model of asthma
# Text: FIG. 8. Serum levels of IL-4, IL-5 and IL-10 in untreated mice or mice treated with ovalbumin+comp 4. Untr=Untreated mice; comp 4=Mice treated with comp 4 alone; OVA=Mice treated with ovalbumin alone; comp 4+OVA=Mice treated with comp 4 and ovalbumin.
# FIG. 9. BALF levels of IL-4 and IL-5 in untreated mice or mice treated with ovalbumin+compound 4. Untr=Untreated mice; comp 4=Mice treated with comp 4 alone; OVA=Mice treated with ovalbumin alone; comp 4+OVA=Mice treated with comp 4 and ovalbumin.
# Compound 4 was tested in a mouse model of asthma where glucose had already been shown therapeutic efficacy. For this purpose, 10 male C57B1/6 mice were immunized intraperitoneally with 100 μg of ovalbumin (grade V) suspended in 500 μg Al(OH)3. Another group of 10 animals was treated the same way and, in addition, also with compound 4 (25 μg/kg) administered orally. One week after the first immunization, the same treatments were repeated. Two weeks after the first immunization, the first group of animals was challenged for 25 min with an aerosol of 5% (wt/vol) ovalbumin every day, for 5 consecutive days, while the other group received aerosolized ovalbumin plus compound 4 (25 μg/kg).
# A hallmark of inflammatory damage to the lung is the development of high-permeability edema, characterized by high protein content in the edema fluid. Indeed, in the lungs of ovalbumin-exposed mice the protein concentration in the BALF was markedly high (0.729 mg/ml), witnessing an important damage to the lungs of these animals. On the other hand, the protein concentration in the BALF of ovalbumin+4-treated animals was similar to that of untreated animals (0.394 mg/ml).
# Eventually, also the cytokine levels in the sera and BALFs of ovalbumin- or ovalbumin+compound 4-treated animals were measured. The levels of the cytokines IL-5 and IL-4, which are pivotal in the pathogenesis of asthmatic disease, were elevated in both sera and BALF from ovalbumin-treated mice, but normal in ovalbumin+4-treated animals.
# [2] = system: mice treated with doxorubicin and 5-fluoruracil; experiment: Chronic doxorubicin- and 5-fluoruracil-induced enterocyte injury in mice
# Protocol: FIG. 11. Serum levels of KC in untreated mice or mice submitted to acute treatment with doxorubicin or chronic treatment with doxorubicin and 5-fluorouracil. Untr=Untreated; Doxo 27 mg=Mice submitted to acute treatment with doxorubicin; Doxo 27 mg comp 4=Mice submitted to acute treatment with doxorubicin and concomitant p.o. administration of comp 4; Doxo cron=Mice submitted to chronic treatment with doxorubicin and 5-fluoruracil; Doxo cron comp 4=Mice submitted to chronic treatment with doxorubicin and 5-fluoruracil and concomitant p.o. administration of compound 4.
# FIG. 13. Histology of the epithelium of the small intestine in mice after chronic treatment with doxorubicin and 5-fluoruracil (DOXO+FLUO) or chronic treatment with doxorubicin and 5-fluoruracil and concomitant administration of compound 4 (comp 4+DOXO+FLUO).
# For the chronic model of enterocyte injury, doxorubicin was administered 1×/week for three weeks (7 mg/kg for the first two administrations, […] for the last administration). At the same times, mice were administered also 5-fluoruracil at 100 mg/kg. Administrations of the chemotherapeutics were performed intraperitoneally. Some of the mice were treated at the same times with compound 4 (25 μg/kg, orally). Recovery of the blood for the determination of circulating KC levels and subsequent sacrifice of the animals were performed at 72 h after the last treatment. […]
# [3] = system: SGLT-1-mediated intestinal glucose absorption; experiment: Glycemia in mice after oral glucose challenge; conditions: plasma, mice challenged orally with 2.5 g/kg glucose + 250 μg/kg compound 4, 1 h
# Protocol: As such, it was argued that it might act as a functional antagonist of SGLT-1-mediated intestinal glucose absorption, and used for the control of hyperglycemia in type II diabetes. This possibility was tested in the following experiments.
# In a first set of experiments mice were orally challenged with 2.5 g/kg of glucose with or without concomitant administration of compound 4 (250 μg/kg) and glycemia was measured after 1 h.
smiles,measurement,setting,value
"CN(C)c1cccc2c(S(=O)(=O)NCC[C@H]3O[C@H](CO)[C@@H](O)[C@H](O)[C@H]3O)cccc12 [Compound 4, 5-(Dimethylamino)-N-[2′-(α-D-glucopyranosyl)ethyl]-1-naphthalenesulphonamide]",Serum KC levels,mice treated with LPS,comparable to those of untreated mice
same,Protection against ovalbumin inflammation,[1]; oral administration of compound 4 during aerosol ovalbumin challenge (data not shown),protects the ovalbumin inflammation analogously to the aerosol challenge
same,IL-4 levels in BALF,[1]; ovalbumin + compound 4,normal
same,IL-4 levels in sera,[1]; ovalbumin + compound 4,normal
same,IL-5 levels in BALF,[1]; ovalbumin + compound 4,normal
same,IL-5 levels in sera,[1]; ovalbumin + compound 4,normal
same,IL-10 levels in sera,[1]; ovalbumin + compound 4,greatly increased
same,protein concentration in the BALF,[1]; ovalbumin + compound 4 (25 μg/kg),0.394 mg/mL
same,eosinophils in BALF,"[1]; ovalbumin + compound 4 (25 μg/kg; oral at immunization, aerosol at challenge)",127 cells/ml
same,Histology of the small intestine,[2]; chronic doxorubicin + 5-fluoruracil + compound 4 25 μg/kg orally,completely normal morphology
same,circulating KC levels,"[2]; doxorubicin 1×/week for three weeks + 5-fluoruracil 100 mg/kg i.p. + compound 4 25 μg/kg orally, 72 h after last treatment",brought the levels back to those observed in untreated mice
same,Glycemia levels,[3],150 mg/dL
